Assay results as given in patent US20110189280A1, “DOSAGE FORM COMPRISING 1-ISOPROPYL-4-HEXAHYDRO-1H-1,4-DIAZEPINE OR A SALT THEREOF” (priority 2008, published 2011).

Assay: Gravimetric vapour sorption (GVS) analysis, water sorption/desorption at different relative humidities
Assay type: physicochemical
Conditions: across the 0-90% relative humidity range at 25° C. under nitrogen

water adsorbed and/or absorbed, and/or desorbed (GVS), compared with crystalline Form 1 mono-maleate (sample before purification by recrystallisation, data not shown)	water reversibly adsorbed and/or absorbed, and/or desorbed (GVS)	Compound
higher quantities of water		CC(C)N1CCCN(C(=O)c2ccc(OC3CCOCC3)cc2)CC1.Cl [Drug Preparation Example 1 Part C, 1-isopropyl-4-{[4-(tetrahydro-2H-pyran-4-yloxy)phenyl]carbonyl}hexahydro-1H-1,4-diazepine hydrochloride]
	approximately 0.4 % w/w	CC(C)N1CCCN(C(=O)c2ccc(OC3CCOCC3)cc2)CC1.O=C(O)/C=C\C(=O)O [Drug Preparation Example 3, 1-Isopropyl-4-{[4-(tetrahydro-2H-pyran-4-yloxy)phenyl]carbonyl}hexahydro-1H-1,4-diazepine mono-maleate salt (crystalline Form 1)]
